According to patent publication US12668596B2, “Process for crystallizing nalmefene hydrochloride” (RHODES TECHNOLOGIES, priority 2021, dated 2026):
Where a name gives a salt, the structure may show the parent alone.

Experiment: Solubility studies of nalmefene HCl monohydrate in aqueous HCl (visual dissolution at 80° C.)
Assay type: physicochemical
Description: A series of nalmefene HCl monohydrate solubility experiments were carried out in aqueous HCl. Nalmefene HCl monohydrate (520 mg) was charged to a 4 mL capped vial, followed by solvent (0-6 M HCl, 780 μL, 1.5 volumes) and heated to 80° C. on a pie-block. Increasing amounts of solvent were added periodically until dissolution was achieved (determined visually).
Seven dissolution experiments were carried out.

C=C1CC[C@@]2(O)[C@H]3Cc4ccc(O)c5c4[C@@]2(CCN3CC2CC2)[C@H]1O5 [Nalmefene HCl, 17-(cyclopropylmethyl)-4,5α-epoxy-6-methylenemorphinan-3,14-diol]
Volumes needed to dissolve nalmefene HCl at 80° C. (Sample No. 0, HCl molarity 0 (water), 520 mg): Fewer than 1.5 Volumes
Volumes needed to dissolve nalmefene HCl at 80° C. (Sample No. 1, HCl molarity 1, 520 mg): 1.5 Volumes
Volumes needed to dissolve nalmefene HCl at 80° C. (Sample No. 2, HCl molarity 2, 520 mg): 2.5 Volumes
Volumes needed to dissolve nalmefene HCl at 80° C. (Sample No. 3, HCl molarity 3, 520 mg): 6.5 Volumes
Volumes needed to dissolve nalmefene HCl at 80° C. (Sample No. 4, HCl molarity 4, 520 mg): 6.5 Volumes
Volumes needed to dissolve nalmefene HCl at 80° C. (Sample No. 5, HCl molarity 5, 520 mg): 4.0 Volumes
Volumes needed to dissolve nalmefene HCl at 80° C. (Sample No. 6, HCl molarity 6, 520 mg): 3.5 Volumes
HCl molarity at which solubility is at a minimum (aqueous HCl 0-6 M): 3-4 M HCl
